Measurements taken from US20060276464A1, “Diarylsulfone sulfonamides and use thereof” (Wyeth, priority 2005, published 2006).
Several values for one entry are separate records, joined by “and”; a condition that tells them apart may be missing. Equal entries are not always repeated. Where two headings read alike, the source gives them in different places.

Tests used:
[1] = molecular target: T1, SFRP-1 (Homo sapiens, UniProt Q8N474); assay: Fluorescence polarization binding assay (competitive displacement of a probe compound from SFRP-1); settings: fluorescence anisotropy, 45 nM SFRP-1, 20 nM probe;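 further: test compound competes with a fluorescent probe held by SFRP-1, seen as a drop in probe anisotropy after incubation in darkness, with anisotropy as function of rising compound dose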
T1 sequence (Q8N474 32-314): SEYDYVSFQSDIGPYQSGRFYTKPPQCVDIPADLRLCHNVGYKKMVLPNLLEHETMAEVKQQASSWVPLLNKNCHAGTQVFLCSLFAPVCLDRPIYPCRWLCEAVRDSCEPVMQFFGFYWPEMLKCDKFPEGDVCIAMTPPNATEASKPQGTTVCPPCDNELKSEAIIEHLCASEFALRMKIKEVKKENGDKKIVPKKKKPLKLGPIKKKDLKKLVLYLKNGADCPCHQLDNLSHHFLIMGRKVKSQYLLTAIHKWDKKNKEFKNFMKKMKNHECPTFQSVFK

[2] = molecular target: T1, SFRP-1; assay: Cell-based assay for in vitro measurement of SFRP-1/SARP2 antagonist activity (U2OS cells co-transfected with 16x TCF-tk-Luciferase reporter, Wnt and hSFRP-1); settings: for fold induction at 15 µM / fold induction at 10 µM / fold induction at 14 µM: U2OS; for fold induction at 10 µM: read-out: Fold Induction with SFRP-1, U2OS cells, single dose 10 μM, luciferase reporter, fold induction over SFRP-1 control;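 on all read-outs here: U2OS cells co-transfected with a TCF-tk luciferase reporter, a Wnt vector, hSFRP-1 or empty vector and CMV-βgal, luciferase luminescence read in cell lysates alongside βgal activity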
[3] = read-out: Fold Induction with SFRP-1, Conc 15 μM, with SFRP-1, fold induction over SFRP-1 control, single dose
[4] = read-out: Fold Induction without SFRP-1, Conc 15 μM, without SFRP-1, single dose
[5] = read-out: Fold Induction with SFRP-1, Conc 15 μM, single dose, luciferase reporter, fold induction over SFRP-1 control, cells with SFRP-1
[6] = read-out: Fold Induction without SFRP-1, Conc 15 μM, single dose, luciferase reporter, cells without SFRP-1 (specificity control)

| SMILES | IC50 [1] | EC50 [2] | fold induction at 10 µM [2] | fold induction at 15 µM [2, 5] | fold induction at 15 µM [2, 6] | also measured |
| --- | --- | --- | --- | --- | --- | --- |
| CCc1ccc(S(=O)(=O)c2ccccc2)cc1S(=O)(=O)NCCc1ccccn1 [Example 223, 2-ethyl-5-(phenylsulfonyl)-N-(2-pyridin-2-ylethyl)benzenesulfonamide] | 900 nM |  |  |  |  | fold induction at 15 µM [2, 3]: 2.6; fold induction at 15 µM [2, 4]: 0.8 |
| CSc1ccc(C(=O)N2CCC(NS(=O)(=O)c3cc(S(=O)(=O)c4ccccc4)ccc3C(F)(F)F)CC2)cc1 [Example 1050, N-{1-[4-(methylthio)benzoyl]piperidin-4-yl}-5-(phenylsulfonyl)-2-(trifluoromethyl)benzenesulfonamide] | 170 nM | 660 nM |  |  |  |  |
| CN(CCNS(=O)(=O)c1cc(S(=O)(=O)c2ccccc2)ccc1C(F)(F)F)C(=O)c1ccc(C(C)(C)C)cc1 [Example 838, 4-tert-Butyl-N-methyl-N-[2-({[5-(phenylsulfonyl)-2-(trifluoromethyl)phenyl]sulfonyl}amino)ethyl]benzamide] | 1200 nM |  | 2.5 |  |  |  |
| COC(=O)[C@H]1CC[C@H](CNS(=O)(=O)c2cc(S(=O)(=O)c3ccccc3)ccc2C(C)C)CC1 [Example 934, methyl trans-4-[({[2-isopropyl-5-(phenylsulfonyl)phenyl]sulfonyl}amino)methyl]cyclohexanecarboxylate] | 2800 nM | 2730 nM | 2.3 |  |  |  |
| CNc1ccc(S(=O)(=O)c2ccc(C(C)C)c(S(=O)(=O)NCC3CCOCC3)c2)cc1 [Example 543, 2-isopropyl-5-{[4-(methylamino)phenyl]sulfonyl}-N-(tetrahydro-2H-pyran-4-ylmethyl)benzenesulfonamide] | 800 nM and 1600 nM |  |  | 2.7 | 1.1 |  |
| CC(C)(C)OC(=O)NCCCNS(=O)(=O)c1cc(S(=O)(=O)c2ccccc2)ccc1C(F)(F)F [Example 988, tert-butyl [3-({[5-(phenylsulfonyl)-2-(trifluoromethyl)phenyl]sulfonyl}amino)propyl]carbamate] | 1100 nM | 1890 nM |  |  |  |  |
| O=S(=O)(NCC1(O)CCCCC1)c1cc(S(=O)(=O)c2ccccc2)ccc1C(F)(F)F [Example 868, N-[(1-hydroxycyclohexyl)methyl]-5-(phenylsulfonyl)-2-(trifluoromethyl)benzenesulfonamide] | 2500 nM | 2130 nM | 2.4 |  |  |  |
| Cc1ccc(S(=O)(=O)c2ccccc2)cc1S(=O)(=O)NC1CCN(C(=O)c2ccc3ccccc3c2)CC1 [Example 496, 2-methyl-N-[1-(2-naphthoyl)piperidin-4-yl]-5-(phenylsulfonyl)benzenesulfonamide] | 1400 nM |  |  | 1.9 | 1 |  |
| CCCc1ccc(S(=O)(=O)c2ccccc2)cc1S(=O)(=O)NC1CCCC1 [Example 554, N-Cyclopentyl-5-(phenylsulfonyl)-2-propylbenzenesulfonamide] | 1700 nM |  |  | 2.6 | 1.1 |  |
| Cc1ccc(S(=O)(=O)c2ccccc2)cc1S(=O)(=O)NCCn1ccnc1 [Example 314, N-[2-(1H-imidazol-1-yl)ethyl]-2-methyl-5-(phenylsulfonyl)benzenesulfonamide] | 1200 nM |  |  |  |  | fold induction at 15 µM [2, 3]: 3.3; fold induction at 15 µM [2, 4]: 1.3 |
| COc1ccc(C(=O)N2CCC(NS(=O)(=O)c3cc(S(=O)(=O)c4ccccc4)ccc3C)CC2)cc1 [Example 467, N-[1-(4-methoxybenzoyl)piperidin-4-yl]-2-methyl-5-(phenylsulfonyl)benzenesulfonamide] | 1900 nM |  |  |  |  | fold induction at 15 µM [2, 3]: 2.3; fold induction at 15 µM [2, 4]: 1 |
| O=C(O)c1ccc(-c2cccc(CNS(=O)(=O)c3cc(S(=O)(=O)c4ccccc4)ccc3C(F)(F)F)c2)cc1 [Example 997, 3′-[({[5-(phenylsulfonyl)-2-(trifluoromethyl)phenyl]sulfonyl}amino)methyl]biphenyl-4-carboxylic acid] | 900 nM | 3080 nM |  |  |  |  |
| COc1cccc(S(=O)(=O)c2ccc(C(F)(F)F)c(S(=O)(=O)NCCO)c2)c1 [Example 785, N-(2-hydroxyethyl)-5-[(3-methoxyphenyl)sulfonyl]-2-(trifluoromethyl)benzenesulfonamide] | 1100 nM |  | 2.9 |  |  |  |
| Cc1ccc(S(=O)(=O)c2ccccc2)cc1S(=O)(=O)NC1CCN(C(=O)CC(C)(C)C)CC1 [Example 504, N-[1-(3,3-dimethylbutanoyl)piperidin-4-yl]-2-methyl-5-(phenylsulfonyl)benzenesulfonamide] | 4000 nM |  |  | 2.2 | 1 |  |
| CC(C)c1ccc(S(=O)(=O)c2ccc(C(C)(C)C)cc2)cc1S(=O)(=O)NC1CCOCC1 [Example 437, 5-[(4-tert-butylphenyl)sulfonyl]-2-isopropyl-N-(tetrahydro-2H-pyran-4-yl)benzenesulfonamide] | 5000 nM |  |  |  |  | fold induction at 15 µM [2, 3]: 2.2; fold induction at 15 µM [2, 4]: 1 |
| CC(C)c1ccc(S(=O)(=O)c2ccc(N3CCN(C)CC3)cc2)cc1S(=O)(=O)NCCC1CCOCC1 [Example 549, 2-isopropyl-5-{[4-(4-methylpiperazin-1-yl)phenyl]sulfonyl}-N-[2-(tetrahydro-2H-pyran-4-yl)ethyl]benzenesulfonamide] | 1600 nM and 2900 nM |  |  | 3.6 | 1.5 |  |
| CCC(O)CNc1ccc(S(=O)(=O)c2ccc(C)c(S(=O)(=O)NCCCn3ccnc3)c2)cc1 (centres unmarked) [Example 373, 5-({4-[(2-hydroxybutyl)amino]phenyl}sulfonyl)-N-[3-(1H-imidazol-1-yl)propyl]-2-methylbenzenesulfonamide] | 1100 nM |  |  |  |  | fold induction at 15 µM [2, 3]: 2.8; fold induction at 15 µM [2, 4]: 1 |
| CC(C)c1ccc(S(=O)(=O)c2ccc(N3CCN(C)CC3)cc2)cc1S(=O)(=O)NCC1CCOCC1 [Example 548, 2-isopropyl-5-{[4-(4-methylpiperazin-1-yl)phenyl]sulfonyl}-N-(tetrahydro-2H-pyran-4-ylmethyl)benzenesulfonamide] | 2200 nM |  |  | 2.5 | 1.2 |  |
| O=S(=O)(NCCc1ccc[n+]([O-])c1)c1cc(S(=O)(=O)c2ccccc2)ccc1C(F)(F)F [Example 723, N-[2-(1-oxidopyridin-3-yl)ethyl]-5-(phenylsulfonyl)-2-(trifluoromethyl)benzenesulfonamide] | 200 nM | 790 nM | 4.5 |  |  |  |
| O=C(c1ccc(F)c(F)c1)N1CCC(NS(=O)(=O)c2cc(S(=O)(=O)c3ccccc3)ccc2C(F)(F)F)CC1 [Example 705, N-[1-(3,4-difluorobenzoyl)piperidin-4-yl]-5-(phenylsulfonyl)-2-(trifluoromethyl)benzenesulfonamide] | 200 nM | 787 nM | 3.5 |  |  |  |
| Cc1ccc(S(=O)(=O)c2ccc(F)cc2)cc1S(=O)(=O)NCCCn1ccnc1 [Example 177, 5-[(4-fluorophenyl)sulfonyl]-N-[3-(1H-imidazol-1-yl)propyl]-2-methylbenzenesulfonamide] | 2900 nM |  |  |  |  | fold induction at 14 µM ([2]; read-out: Fold Induction with SFRP-1, Conc 14 μM, with SFRP-1, fold induction over SFRP-1 control, single dose): 2.9; fold induction at 15 µM [2, 3]: 3.6; fold induction at 14 µM ([2]; read-out: Fold Induction without SFRP-1, Conc 14 μM, without SFRP-1, single dose): 1; fold induction at 15 µM [2, 4]: 1 |
| Cc1cc(N(C)C)ccc1S(=O)(=O)c1ccc(C(C)C)c(S(=O)(=O)NCCc2ccccn2)c1 [Example 600, 5-{[4-(dimethylamino)-2-methylphenyl]sulfonyl}-2-isopropyl-N-(2-pyridin-2-ylethyl)benzenesulfonamide] | 2000 nM |  |  | 3 | 1.1 |  |
| COc1ccc(CNS(=O)(=O)c2cc(S(=O)(=O)c3ccccc3)ccc2C(F)(F)F)c(OC)c1 [Example 1021, N-(2,4-dimethoxybenzyl)-5-(phenylsulfonyl)-2-(trifluoromethyl)benzenesulfonamide] | 200 nM | > 10000 nM |  |  |  |  |
| CC(C)c1ccc(S(=O)(=O)c2ccc(N(C)C)cc2)cc1S(=O)(=O)NCCc1ccccn1 [Example 507, 5-{[4-(dimethylamino)phenyl]sulfonyl}-2-isopropyl-N-(2-pyridin-2-ylethyl)benzenesulfonamide] | 500 nM |  |  | 2.7 | 0.9 |  |
| O=S(=O)(NC1CCOCC1)c1cc(S(=O)(=O)c2ccccc2)ccc1OC(F)(F)F [Example 662, 5-(phenylsulfonyl)-N-(tetrahydro-2H-pyran-4-yl)-2-(trifluoromethoxy)benzenesulfonamide] | 4000 nM | 17600 nM | 3.3 |  |  |  |
| N#Cc1ccc(CCNS(=O)(=O)c2cc(S(=O)(=O)c3ccccc3)ccc2C(F)(F)F)cc1 [Example 966, N-[2-(4-cyanophenyl)ethyl]-5-(phenylsulfonyl)-2-(trifluoromethyl)benzenesulfonamide] | 500 nM | 229 nM | 1.5 |  |  |  |
